Assay [1] has as its system mouse primary hindbrain neurons (MPHN). Nature of the assay: Gene expression in mouse primary hindbrain neurons (MPHN). The assay is classed as cell-based. To be noted: osteocalcin 3 ng/ml, 2 or 4 hours; WT and Gprc6a−/− primary brainstem neuronal culture. The procedure:
For gene expression studies, RNA was isolated from primary neurons or tissue using TRIZOL® (Invitrogen). cDNA synthesis was performed following a standard protocol from Invitrogen and qPCR analyses were done using specific quantitative PCR primers from SABiosciences (http://www.sabiosciences.com/RT2PCR.php).
For primary culture of hindbrain neurons, E14.5 embryos were obtained from matings of 129-Sv WT mice. Hindbrains were dissected out and collected in ice-cold filter sterilized HBSS buffered with 10 mM HEPES until dissection was complete, at which point they were finely chopped into 2 mm cubes, dissociated by trituration with a fire-polished Pasteur pipette and spun down at 4° C. Cells were then plated onto poly-D-lysine coated coverslips or dishes in Neurobasal medium supplemented with 2% B27, 0.25 mM Glutamax, 0.25 mM L-glutamine, penicillin G (50 U/ml), and streptomycin sulphate ([…]). Cultures were fed every 3-6 days with one half replacement medium without L-glutamine.
To determine if osteocalcin acts directly on neurons to modulate neurotransmitter synthesis, several types of assays were performed. First, brainstem and midbrain explants from WT and Gprc6a^−/− mice were generated. […] Third, to further confirm that osteocalcin signals in neurons of the hindbrain, calcium flux in MPHN treated with undercarboxylated or carboxylated osteocalcin (FIG. 3F) was measured.

The subject of assay [2] is WT 2-month old mice. Nature of the assay: ICV delivery in WT adult mice, D/LT and EPMT. The assay is classed as in vivo, mouse. To be noted: ICV 3 or 10 ng/hour, one month. On the procedure:
Each mouse was allowed to explore the apparatus for 5 min. Global activity was assessed by measuring the number of entries […] (David et al, 2009, Neuron 62:479-493). Anxiety was assessed by comparing the time spent in the open arms.
The test was performed in a quiet, darkened room. Mice were individually housed in cages containing a handful of bedding from their home cage and acclimated to the room at least 1 h before the test. Naive mice were placed individually in the testing chamber in the dark compartment. The test was 5 min in duration, and time spent and number of entries in light compartments were recorded a highly trained observer, blind to the genotype of the mice.
To determine if osteocalcin is sufficient to improve cognitive function in adult mice, WT 2-month old mice were implanted with ICV pumps delivering vehicle (PBS), or 3, 10, or 30 ng/hr recombinant uncarboxylated full-length mouse osteocalcin for a period of one month. After one month of infusion, animals were subjected to behavioral testing.

In assay [3] the test system is 12 and 16 month-old WT mice. The assay can be described thus: Peripheral osteocalcin delivery by mini-pumps in aging WT mice, DLT, EPMT, MWMT, NOR. The assay is classed as in vivo, mouse. To be noted: 30 or 90 ng/h peripherally via mini-pumps for 60 days. The procedure: For plasma injection experiments, 100 μl of plasma were injected 8 times during 24 days, via tail vein. Each group described is represented individually in each panel. For osteocalcin delivery in WT mice, pumps (Alzet micro-osmotic pump, Model 1002) delivering osteocalcin (30 ng/hr for 12 month-old and 90 ng/hr for 16 month-old mice), or vehicle, were surgically installed subcutaneously in the back of mice. For alendronate delivery to 3 month-old mice, intraperitoneal injections (40 μg/kg) were performed twice a week for 6 weeks. During the last 4 weeks of treatment and during behavioral testing, half of the alendronate-treated mice received 60 ng/hr osteocalcin by osmotic pump. […]
Elevated plus maze test (EPMT): This test takes advantage of the aversion of rodents to open spaces. […] The total number of arm entries and time spent in open arms is recorded. […]
Light to dark transition test: This test is based on the innate aversion of rodents to brightly illuminated areas and on their spontaneous exploratory behavior in response to the stressor that light represents. […] Mice were tested for 6 min and […] were recorded: (i) latency to enter the lit compartment, (ii) time spent in this compartment, an index of the anxiety-related behavior and (iii) number of transitions between compartments, an index of anxiety-related behavior as well as exploratory activity. […]

The results in this text go back to patent publication US20200069775A1, “BRAIN OSTEOCALCIN RECEPTOR AND COGNITIVE DISORDERS” (The Trustees of Columbia University in the City of New York, priority 2017, published 2020).

For “osteocalcin: Recombinant osteocalcin bacterially produced, cleaved from the GST subunit; completely undercarboxylated at all three sites; full-length mouse osteocalcin (YLGASVPSPDPLEPTREQCELNPACDELSDQYGLKTAYKRIYGITI)”, in assay [1], the Tph2 expression entry was “increased more than three-fold” and the “decrease of GAD1 expression” value is 65%. In assay [2], the “anxiety-like behavior (D/LT and EPMT)” value was “decrease in anxiety-like behavior”; the “exploration of the lit compartment and open arms (D/LT, EPM)” value is “increase in the exploration of the lit compartment and open arms”. For the same substance, the “memory (MWMT and NOR)” value in assay [3] (12- and 16-month-old WT mice) is given as “memory was significantly improved”. The “exploratory and anxiety-like behavior (DLT or EPMT)” value in assay [3] (12 and 16 month-old WT mice) is “better exploratory behavior and decreased anxiety-like behavior”.
